The source of these data is patent US8188098B2, “GPR119 receptor agonists” (Hoffmann-La Roche Inc., priority 2008, dated 2012).

Molecules are shown by their SMILES.

The experiment addresses T1, GPR119 receptor (Mesocricetus auratus, UniProt A0A1U8CD06).
T1 construct: which endogenously express the GPR119 receptor; host or cells: HIT-T15 hamster pancreatic islet cells
T1 sequence (A0A1U8CD06 1-334): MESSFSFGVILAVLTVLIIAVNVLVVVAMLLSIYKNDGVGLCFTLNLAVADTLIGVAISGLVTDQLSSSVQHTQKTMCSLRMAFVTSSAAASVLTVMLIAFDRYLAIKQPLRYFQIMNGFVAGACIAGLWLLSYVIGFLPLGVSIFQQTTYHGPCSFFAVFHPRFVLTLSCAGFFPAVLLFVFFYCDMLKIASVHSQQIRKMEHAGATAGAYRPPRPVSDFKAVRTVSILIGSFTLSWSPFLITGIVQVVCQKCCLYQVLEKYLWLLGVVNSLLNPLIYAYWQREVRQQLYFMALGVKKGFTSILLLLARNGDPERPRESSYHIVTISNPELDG
The experiment in a line: cAMP assay in HIT-T15 hamster pancreatic islet cells (functional agonist activity). The experiment is classed as cell-based. The note with it: HIT-T15 cells endogenously expressing GPR119; 30 min at 25° C.; intracellular cAMP. As for the experimental part: The functional agonist activities of compounds of the invention were characterized using a cAMP assay in HIT-T15 hamster pancreatic islet cells (American Type Culture Collection, Manassas, Va., USA) which endogenously express the GPR119 receptor. The cells were cultured in Kaighn's modification of Ham's F12 medium (Invitrogen Corporation, Carlsbad, Calif., USA) containing 10% horse serum, 2.5% FBS, and 1% Pen/Strep and grown in 225 cm^2 tissue culture flasks until they reached 75-85% confluence.
The cells were harvested 24 h prior to assay with 5 ml Versene®, washed with Kaighn/F12 medium and then plated into white 384-well plates (9000 cells/well) containing Kaighn/F12 medium. Prior to assay, the culture medium was replaced with a Kaighn/F12 medium without phenol red (50 μL/well) containing 0.5 mM 3-isobutyl-1-methylxanthine, 0.5 mg/ml BSA. The cells were incubated in the dark for 30 min at 25° C. in the absence or presence of varying concentrations of agonist (1 μL, 100% DMSO). The incubation media was discarded and replaced with the assay lysis buffer (50 μL/well) provided in the Tropix cAMP-Screen® kit (Applied Biosystems, Foster City, Calif., USA) and the plates incubated for 45 min at 37° C. The intracellular levels of cAMP generated in the HIT-T 15 cells were measured using the Tropix kit. In brief, 20 μL of the lysate was transferred into pre-coated antibody plates (384-well; Tropix kit) along with 10 μL of alkaline phosphatase conjugate and 20 μL of anti-cAMP antibody and the plates were incubated for 1 h at room temperature while shaking. The plates were then washed 5 times with wash buffer (70 μL) and tapped dry. CSPD®/Sapphire-II™ RTU substrate/enhancer solution (Applied Biosystems, Foster City, Calif., USA; 30 μL) was added and the plates were incubated for 45 min at room temperature while shaking. The signal generated was measured using a Wallac Victor V Luminometer (PerkinElmer Life And Analytical Sciences, Inc., Waltham, Mass., USA; 1 sec/well). EC50 values were calculated using the XLFit program (ID Business Solutions Ltd., Guildford, Surrey, UK).
`CC(C)(C)OC(=O)N1CCC(n2ncc3c(Oc4ccc(S(N)(=O)=O)cc4)ncnc32)CC1` [Example 56, 4-[4-(4-Sulfamoyl-phenoxy)-pyrazolo[3,4-d]pyrimidin-1-yl]-piperidine-1-carboxylic acid tert-butyl ester] yielded an EC50 of 0.28 µM.

In the case of `CN(C)S(=O)(=O)c1ccc(Oc2ncnc3c2cnn3C2CCN(C(=O)OC(C)(C)C)CC2)cc1` [Example 57, 4-[4-(4-Dimethylsulfamoyl-phenoxy)-pyrazolo[3,4-d]pyrimidin-1-yl]-piperidine-1-carboxylic acid tert-butyl ester], it took 0.3 µM to reach a half-maximal effect (EC50).

As for `CC(C)OC(=O)N1CCC(n2ncc3c(Oc4ccc(=O)n(C)n4)ncnc32)CC1` [Example 31, 4-[4-(1-Methyl-6-oxo-1,6-dihydro-pyridazin-3-yloxy)-pyrazolo[3,4-d]pyrimidin-1-yl]-piperidine-1-carboxylic acid isopropyl ester], the EC50 worked out at 3.5 µM.

The molecule `CS(=O)(=O)c1ccc(Oc2ncnc3c2cnn3C2CCN(Cc3cccc(Cl)c3)CC2)cc1` [Example 158, 1-[1-(3-Chloro-benzyl)-piperidin-4-yl]-4-(4-methanesulfonyl-phenoxy)-1H-pyrazolo[3,4-d]pyrimidine] displayed an EC50 of 0.28 µM.

`CS(=O)(=O)c1ccc(Oc2ncnc3c2cnn3C2CCN(Cc3nccs3)CC2)cc1` [Example 169, 4-(4-Methanesulfonyl-phenoxy)-(1-thiazol-2-ylmethyl-piperidin-4-yl)-1H-pyrazolo[3,4-d]pyrimidine] yielded an EC50 of 3.6 µM.

The molecule `CS(=O)(=O)c1ccc(Oc2ncnc3c2cnn3C2CCN(C(=O)C3CCCC3)CC2)cc1` [Example 141, Cyclopentyl-{4-[4-(4-methanesulfonyl-phenoxy)-pyrazolo[3,4-d]pyrimidin-1-yl]-piperidin-1-yl}-methanone] returned an EC50 of 0.42 µM.

`N#Cc1ccc(F)c(F)c1Oc1ncnc2c1cnn2C1CCN(C(=O)OC2CCCC2)CC1` [Example 119, 4-[4-(6-Cyano-2,3-difluoro-phenoxy)-pyrazolo[3,4-d]pyrimidin-1-yl]-piperidine-1-carboxylic acid cyclopentyl ester] showed an EC50 of 0.063 µM. Against the preceding molecule, the EC50 is about 6.7-fold lower.

Regarding `Cn1nc(Oc2ncnc3c2cnn3C2CCN(C(=O)OC(C)(C)C)CC2)ccc1=O` [Example 102, 4-[4-(1-Methyl-6-oxo-1,6-dihydro-pyridazin-3-yloxy)-pyrazolo[3,4-d]pyrimidin-1-yl]-piperidine-1-carboxylic acid tert-butyl ester], the EC50 was 0.47 µM.

Turning to `CC(C)c1noc(C2CCC(n3ncc4c(Oc5ccc(S(C)(=O)=O)cc5F)ncnc43)CC2)n1` (centres unmarked) [Example 131, 4-(2-Fluoro-4-methanesulfonyl-phenoxy)-1-[4-(3-isopropyl-[1,2,4]oxadiazol-5-yl)-cyclohexyl]-1H-pyrazolo[3,4-d]pyrimidine], the EC50 was determined as 0.39 µM.

In turn, `CC(C)(C)OC(=O)N1CCCC(n2ncc3c(Oc4ccc(S(C)(=O)=O)cc4)ncnc32)C1` (single isomer, unassigned) [Example 88] gave an EC50 of 0.045 µM.

With `CS(=O)(=O)c1ccc(Oc2ncnc3c2cnn3C2CCN(Cc3cccc(OC(F)(F)F)c3)CC2)cc1` [Example 162, 4-(4-Methanesulfonyl-phenoxy)-1-[1-(3-trifluoromethoxy-benzyl)-piperidin-4-yl]-1H-pyrazolo[3,4-d]pyrimidine], the EC50 stood at 0.12 µM.

In the case of `CS(=O)(=O)c1ccc(Nc2ncnc3c2cnn3C2CCN(Cc3ccccc3)CC2)c(F)c1` [Example 11, [1-(1-Benzyl-piperidin-4-yl)-1H-pyrazolo[3,4-d]pyrimidin-4-yl]-(2-fluoro-4-methanesulfonylphenyl)-amine], it took 2.5 µM to reach a half-maximal effect (EC50).

In turn, `CC(C)(C)OC(=O)N1CCC(n2ncc3c(Nc4ccc(S(C)(=O)=O)cc4)ncnc32)CC1` [Example 5, 4-[4-(4-Methanesulfonyl-phenylamino)-pyrazolo[3,4-d]pyrimidin-1-yl]-piperidine-1-carboxylic acid tert-butyl ester] showed an EC50 of 1.5 µM. Compared with the last molecule, the EC50 is about 1.7-fold lower.

Molecule `CS(=O)(=O)c1ccc(Oc2ncnc3c2cnn3C2CCN(Cc3cccc(C#N)c3)CC2)cc1` [Example 168, 3-{4-[4-(4-Methanesulfonyl-phenoxy)-pyrazolo[3,4-d]pyrimidin-1-yl]-piperidin-1-ylmethyl}-benzonitrile] returned an EC50 of 1.5 µM.

Take `CC(C)C(=O)N1CCC(n2ncc3c(Oc4ccc(S(C)(=O)=O)cc4)ncnc32)CC1` [Example 136, 1-{4-[4-(4-Methanesulfonyl-phenoxy)-pyrazolo[3,4-d]pyrimidin-1-yl]-piperidin-1-yl}-2-methyl-propan-1-one]: the EC50 is 0.99 µM.

The molecule `Cc1ncccc1Oc1ncnc2c1cnn2C1CCN(C(=O)OC(C)C)CC1` [Example 27, 4-[4-(2-Methyl-pyridin-3-yloxy)-pyrazolo[3,4-d]pyrimidin-1-yl]-piperidine-1-carboxylic acid isopropyl ester] displayed an EC50 of 0.85 µM. The EC50 values of the last two molecules are within 1.5-fold of each other.

Regarding `CC(C)(OC(=O)N1CCC(n2ncc3c(Oc4ccc(S(C)(=O)=O)cc4)ncnc32)CC1)C(Cl)(Cl)Cl` [Example 114, 4-[4-(4-Methanesulfonyl-phenoxy)-pyrazolo[3,4-d]pyrimidin-1-yl]-piperidine-1-carboxylic acid 2,2,2-trichloro-1,1-dimethyl-ethyl ester], the EC50 turned out to be 0.044 µM.

Consider `Cc1ncccc1Oc1ncnc2c1cnn2C1CCN(c2nc(C(C)C)no2)CC1` [Example 129, 1-[1-(3-Isopropyl-[1,2,4]oxadiazol-5-yl)-piperidin-4-yl]-4-(2-methyl-pyridin-3-yloxy)-1H-pyrazolo[3,4-d]pyrimidine], for which the midpoint of the response, the EC50, lay at 2.3 µM.

For `CS(=O)(=O)c1ccc(Oc2ncnc3c2cnn3C2CCN(Cc3ccccc3)CC2)cc1` [Example 157, 1-(1-Benzyl-piperidin-4-yl)-4-(4-methanesulfonyl-phenoxy)-1H-pyrazolo[3,4-d]pyrimidine], the EC50 turned out to be 0.58 µM.

Consider `CC(C)(C)OC(=O)N1CCC(n2ncc3c(Oc4ccc(-n5ncnn5)cc4)ncnc32)CC1` [Example 82, 4-[4-(4-Tetrazol-2-yl-phenoxy)-pyrazolo[3,4-d]pyrimidin-1-yl]-piperidine-1-carboxylic acid tert-butyl ester], for which the EC50 came to 1.8 µM. Against the preceding molecule, the EC50 is about 3.1-fold higher.

`CC(C)(C)OC(=O)N1CCC(n2ncc3c(Oc4ccc(C(N)=O)cc4)ncnc32)CC1` [Example 62, 4-[4-(4-Carbamoyl-phenoxy)-pyrazolo[3,4-d]pyrimidin-1-yl]-piperidine-1-carboxylic acid tert-butyl ester]: a half-maximal response (EC50) required 0.65 µM.

In turn, `CC(C)(C)OC(=O)N1CCC(n2ncc3c(Oc4ccc(S(C)(=O)=O)cc4)nc(Cl)nc32)CC1` [Example 172, 4-[6-Chloro-4-(4-methanesulfonyl-phenoxy)-pyrazolo[3,4-d]pyrimidin-1-yl]-piperidine-1-carboxylic acid tert-butyl ester] showed an EC50 of 0.024 µM.

Molecule `CC(C)(C)OC(=O)N1CCC(n2ncc3c(Oc4cncc(Cl)c4)ncnc32)CC1` [Example 100, 4-[4-(5-Chloro-pyridin-3-yloxy)-pyrazolo[3,4-d]pyrimidin-1-yl]-piperidine-1-carboxylic acid tert-butyl ester] displayed an EC50 of 1.8 µM.

In the case of `CC(C)OC(=O)N1CCC(n2ncc3c(Oc4ccc(S(C)(=O)=O)c(F)c4)ncnc32)CC1` [Example 24, 4-[4-(3-Fluoro-4-methanesulfonyl-phenoxy)-pyrazolo[3,4-d]pyrimidin-1-yl]-piperidine-1-carboxylic acid isopropyl ester], the EC50 worked out at 0.098 µM.

In the case of `Cc1nnnn1-c1ccc(Oc2ncnc3c2cnn3C2CCN(C(=O)OC(C)(C)C)CC2)cc1` [Example 84, 4-{4-[4-(5-Methyl-tetrazol-1-yl)-phenoxy]-pyrazolo[3,4-d]pyrimidin-1-yl}-piperidine-1-carboxylic acid tert-butyl ester], the concentration for a half-maximal effect (EC50) turned out to be 0.24 µM.

For the molecule `CS(=O)(=O)c1ccc(Oc2ncnc3c2cnn3C2CCN(C(=O)OCC(F)(F)F)CC2)cc1` [Example 113, 4-[4-(4-Methanesulfonyl-phenoxy)-pyrazolo[3,4-d]pyrimidin-1-yl]-piperidine-1-carboxylic acid 2,2,2-trifluoro-ethyl ester], a half-maximal response (EC50) required 0.16 µM.

In general, EC50 refers to the concentration at which the effect is half-maximal.
